Test results: patent US8551984B2, “Aminopyrimidines as SYK inhibitors” (Merck Sharp & Dohme Corp., priority 2009, dated 2013)

target: recombinant human SYK (GST-hSYK fusion protein) (Homo sapiens, UniProt P43405); assay: biochemical; settings: rhSYK Activity (IC50), recombinant human GST-SYK 5 pM, ATP 25 μM, biotinylated substrate peptide 250 nM, HTRF, 10-dose titration
From the text: Homogeneous Time-Resolved Fluorescence (HTRF) Assay for the Recombinant Human SYK Enzyme:

| IC50 [nM] | SMILES |
| --- | --- |
| < 100 | Cc1cc(Nc2nccc(N3CCCC(=O)NC3)n2)cc(-c2cnc(C3(O)CCC3)s2)c1 [Example 94C-1] |
| 100 to 1000 | Cc1cc(Nc2nccc(OC(C)(C)C(=O)O)n2)cc(-c2cnc(C3(O)CCC3)s2)c1 [Example 95, 2-{[2-({3-[2-(1-hydroxycyclobutyl)-1,3-thiazol-5-yl]-5-methylphenyl}amino)pyrimidin-4-yl]oxy}-2-methylpropanoic acid] |
| < 100 | Cc1cc(Nc2nccc(OC3CCC(C(=O)O)CC3)n2)cc(-c2cnc(C3(O)CCC3)s2)c1 (stereo not drawn) [Example 97, 4-{[2-({3-[2-(1-hydroxycyclobutyl)-1,3-thiazol-5-yl]-5-methylphenyl}amino)pyrimidin-4-yl]oxy}cyclohexanecarboxylic acid] |
| < 100 | Cc1cc(Nc2nccc(Cl)n2)cc(-c2cnc(C(C)(O)C(F)(F)F)s2)c1 (stereo not drawn) [Example 98, 2-(5-{3-[(4-chloropyrimidin-2-yl)amino]-5-methylphenyl}-1,3-thiazol-2-yl)-1,1,1-trifluoropropan-2-ol] |
| < 100 | COc1ccnc(Nc2cc(C)cc(-c3cnc(C4(O)CCC4)s3)c2)n1 [Example 100A-1] |
| < 100 | Cc1cc(Nc2nccc(C)n2)cc(-c2cnc(C3(O)CCC3)s2)c1 [Example 100A-2] |
| 100 to 1000 | Cc1cc(Nc2ncccn2)cc(-c2cnc(C3(O)CCC3)s2)c1 [Example 100A-3] |
| 100 to 1000 | Cc1cc(Nc2ncc(F)cn2)cc(-c2cnc(C3(O)CCC3)s2)c1 [Example 100A-4] |
| 100 to 1000 | Cc1cc(Nc2ncc(Cl)cn2)cc(-c2cnc(C3(O)CCC3)s2)c1 [Example 100A-5] |
| 100 to 1000 | CCc1cnc(Nc2cc(C)cc(-c3cnc(C4(O)CCC4)s3)c2)nc1 [Example 100A-6] |
| < 100 | Cc1cc(Nc2nccc(C#N)n2)cc(-c2cnc(C3(O)CCC3)s2)c1 [Example 100A-7] |
| 100 to 1000 | Cc1cc(Nc2nc(C)cc(C)n2)cc(-c2cnc(C3(O)CCC(C(=O)O)C(C)(C)C3)s2)c1 (stereo not drawn) [Example 100A-9] |
| 100 to 1000 | COc1nc(Nc2cc(C)cc(-c3cnc(C4(O)CCC(O)CC4)s3)c2)ncc1C(F)(F)F (stereo not drawn) [Example 100A-11] |
| < 100 | COc1nc(Nc2cc(C)cc(-c3cnc(C4(O)CCC(C(=O)O)C(C)(C)C4)s3)c2)ncc1C (stereo not drawn) [Example 100A-13] |
| < 100 | Cc1cc(Nc2ncc(C)c(N(C)C)n2)cc(-c2cnc(C3(O)CCC(C(=O)O)C(C)(C)C3)s2)c1 (stereo not drawn) [Example 100A-16] |
| < 100 | Cc1cc(Nc2nccc(C(C)(C)O)n2)cc(-c2cnc(C3(O)CCC(C(=O)O)C(C)(C)C3)s2)c1 (stereo not drawn) [Example 100A-17] |
| < 100 | Cc1cc(Nc2nccc(C(F)C3CC3)n2)cc(-c2cnc(C3(O)CCC(C(=O)O)C(C)(C)C3)s2)c1 (stereo not drawn) [Example 100A-20] |
| < 100 | Cc1cc(Nc2nccc(C=CC(C)(C)O)n2)cc(-c2cnc(C3(O)CCC(C(=O)O)C(C)(C)C3)s2)c1 (stereo not drawn) [Example 100A-23] |
| < 100 | Cc1cc(Nc2nccc(C(C)(O)C3CC3)n2)cc(-c2cnc(C3(O)CCC(C(=O)O)C(C)(C)C3)s2)c1 (stereo not drawn) [Example 100A-24] |
| 1000 to 10000 | COC(=O)C1CCC(O)(c2ncc(-c3cc(C)cc(Nc4ncc(C(F)(F)F)c(OC)n4)c3)s2)CC1(C)C (stereo not drawn) [Example 100A-27] |
| 100 to 1000 | COC(=O)[C@H]1CC[C@](O)(c2ncc(-c3cc(C)cc(Nc4ncc5c(n4)CCC5)c3)s2)CC1(C)C [Example 100A-29] |
| < 100 | COc1ccnc(Nc2cc(C)cc(-c3cnc(C(C)(O)C(F)(F)F)s3)c2)n1 (stereo not drawn) [Example 100B-1] |

| IC50 [nM] | SMILES |
| --- | --- |
| < 100 | Cc1cc(Nc2ncc(F)cn2)cc(-c2cnc(C(C)(O)C(F)(F)F)s2)c1 (stereo not drawn) [Example 100B-2] |
| 100 to 1000 | COc1cnc(Nc2cc(C)cc(-c3cnc(C(C)(O)C(F)(F)F)s3)c2)nc1 (stereo not drawn) [Example 100B-3] |
| 1000 to 10000 | Cc1cc(Nc2ncc(C3CC3)cn2)cc(-c2cnc(C(C)(O)C(F)(F)F)s2)c1 (stereo not drawn) [Example 100B-4] |
| < 100 | Cc1cnc(Nc2cc(C)cc(-c3cnc(C(C)(O)C(F)(F)F)s3)c2)nc1 (stereo not drawn) [Example 100] |
| 100 to 1000 | Cc1cc(Nc2ncccn2)cc(-c2cnc(C(C)(O)C(F)(F)F)s2)c1 (stereo not drawn) [Example 101, 1,1,1-trifluoro-2-{5-[3-methyl-5-(pyrimidin-2-ylamino)phenyl]-1,3-thiazol-2-yl}propan-2-ol] |
| < 100 | CCOC(=O)C1CCC(O)(c2ncc(-c3cc(C)cc(Nc4nccc(C(C)(C)C)n4)c3)s2)CC1C (stereo not drawn) [Example 101-1] |
| < 100 | COC(=O)[C@H]1CC[C@](O)(c2ncc(-c3cc(C)cc(Nc4nccc(C(C)C)n4)c3)s2)CC1(C)C [Example 101-2] |
| < 100 | COC(=O)[C@H]1CC[C@](O)(c2ncc(-c3cc(C)cc(Nc4nccc(C(C)(C)C)n4)c3)s2)CC1(C)C [Example 101-3] |
| < 100 | COC(=O)[C@H]1CC[C@](O)(c2ncc(-c3cc(C)cc(Nc4nccc(OC(C)C)n4)c3)s2)CC1(C)C [Example 101-4] |
| < 100 | C=Cc1ccnc(Nc2cc(C)cc(-c3cnc([C@@]4(O)CC[C@H](C(=O)OC)C(C)(C)C4)s3)c2)n1 [Example 101-5] |
| < 100 | COC(=O)[C@H]1CC[C@](O)(c2ncc(-c3cc(C)cc(Nc4nccc(C5CCC5)n4)c3)s2)CC1(C)C [Example 101-6] |
| < 100 | COC(=O)[C@H]1CC[C@](O)(c2ncc(-c3cc(C)cc(Nc4nccc(C(N)=O)n4)c3)s2)CC1(C)C [Example 101-7] |
| < 100 | COc1nc(Nc2cc(C)cc(-c3cnc(C4(O)CCC4)s3)c2)ncc1Cl [Example 102, 1-(5-{3-[(5-chloro-4-methoxypyrimidin-2-yl)amino]-5-methylphenyl}-1,3-thiazol-2-yl)-cyclobutanol] |
| < 100 | Cc1cc(Nc2ncc(Cl)c(C)n2)cc(-c2cnc(C3(O)CCC3)s2)c1 [Example 103, 1-(5-{3-[(5-chloro-4-methylpyrimidin-2-yl)amino]-5-methylphenyl}-1,3-thiazol-2-yl)cyclobutanol] |
| < 100 | C=Cc1ccnc(Nc2cc(C)cc(-c3cnc(C4(O)CCC4)s3)c2)n1 [Example 104, 1-(5-{3-[(4-ethenylpyrimidin-2-yl)amino]-5-methylphenyl}-1,3-thiazol-2-yl)cyclobutanol] |
| 100 to 1000 | COC/C=C/c1ccnc(Nc2cc(C)cc(-c3cnc(C4(O)CCC(C(=O)OC(C)(C)C)CC4)s3)c2)n1 (stereo not drawn) [Example 104-1] |
| < 100 | COC/C=C/c1ccnc(Nc2cc(C)cc(-c3cnc(C4(O)CCC(C(=O)O)CC4)s3)c2)n1 (stereo not drawn) [Example 104-2] |
| < 100 | Cc1cc(Nc2nccc(C(O)CO)n2)cc(-c2cnc(C3(O)CCC3)s2)c1 (stereo not drawn) [Example 105, 1-[2-({3-[2-(1-hydroxycyclobutyl)-1,3-thiazol-5-yl]-5-methylphenyl}amino)pyrimidin-4-yl]ethane-1,2-diol] |
| < 100 | CC(=O)c1ccnc(Nc2cc(C)cc(-c3cnc(C(C)(O)C(F)(F)F)s3)c2)n1 (stereo not drawn) [Example 106, 1-[2-({3-methyl-5-[2-(1,1,1-trifluoro-2-hydroxypropan-2-yl)-1,3-thiazol-5-yl]phenyl}amino)pyrimidin-4-yl]ethanone] |
| < 100 | Cc1cc(Nc2nccc(C3CCC3)n2)cc(-c2cnc(C3(O)CCC3)s2)c1 [Example 107, 1-(5-{3-[(4-cyclobutylpyrimidin-2-yl)amino]-5-methylphenyl}-1,3-thiazol-2-yl)cyclobutanol] |
| < 100 | Cc1cc(Nc2nccc(C3CCCC3)n2)cc(-c2cnc(C3(O)CCC3)s2)c1 [Example 107-1] |
| < 100 | Cc1cc(Nc2nccc(C3CCCCC3)n2)cc(-c2cnc(C3(O)CCC3)s2)c1 [Example 107-2] |

same assay, conditions: rhSYK Activity, Table 108A

| IC50 [nM] | SMILES |
| --- | --- |
| < 100 | Cc1cc(Nc2nccc(OCc3nccn3C)n2)cc(-c2cnc(C3(O)CCC3)s2)c1 [Example 108A-1] |
| < 100 | Cc1cc(Nc2nccc(OCc3c[nH]cn3)n2)cc(-c2cnc(C3(O)CCC3)s2)c1 [Example 108A-2] |
| < 100 | Cc1cc(Nc2nccc(OCCN3CCOCC3=O)n2)cc(-c2cnc(C3(O)CCC3)s2)c1 [Example 108A-3] |
| < 100 | Cc1cc(Nc2nccc(OCC3CCCOC3)n2)cc(-c2cnc(C3(O)CCC3)s2)c1 (stereo not drawn) [Example 108A-4] |
| < 100 | Cc1cc(Nc2nccc(OC(CN)c3ccncn3)n2)cc(-c2cnc(C3(O)CCC3)s2)c1 (stereo not drawn) [Example 108A-6] |
| 100 to 1000 | Cc1cc(Nc2nccc(OCc3cccc4ccnn34)n2)cc(-c2cnc(C3(O)CCC3)s2)c1 [Example 108A-7] |
| < 100 | Cc1cc(Nc2nccc(OCCc3cnn(C)c3)n2)cc(-c2cnc(C3(O)CCC3)s2)c1 [Example 108A-8] |
| < 100 | Cc1cc(Nc2nccc(OCc3ccon3)n2)cc(-c2cnc(C3(O)CCC3)s2)c1 [Example 108A-9] |
| < 100 | Cc1cc(Nc2nccc(OCCn3nccn3)n2)cc(-c2cnc(C3(O)CCC3)s2)c1 [Example 108A-12] |
| < 100 | Cc1cc(Nc2nccc(OCCn3ccnn3)n2)cc(-c2cnc(C3(O)CCC3)s2)c1 [Example 108A-13] |
| 100 to 1000 | Cc1cc(Nc2nccc(OCCNC3CCN(C)CC3)n2)cc(-c2cnc(C3(O)CCC3)s2)c1 [Example 108A-14] |
| 100 to 1000 | Cc1cc(Nc2nccc(OCC3Cc4ccccc4N3)n2)cc(-c2cnc(C3(O)CCC3)s2)c1 (stereo not drawn) [Example 108A-15] |
| < 100 | Cc1cc(Nc2nccc(OCc3ccnn3C)n2)cc(-c2cnc(C3(O)CCC3)s2)c1 [Example 108A-16] |
| < 100 | Cc1cc(Nc2nccc(OCCN3CCCNCC3)n2)cc(-c2cnc(C3(O)CCC3)s2)c1 [Example 108A-19] |
| < 100 | Cc1cc(Nc2nccc(OCC3CN(C)CCN3C)n2)cc(-c2cnc(C3(O)CCC3)s2)c1 (stereo not drawn) [Example 108A-20] |
| < 100 | Cc1cc(Nc2nccc(OCCc3nnn[nH]3)n2)cc(-c2cnc(C3(O)CCC3)s2)c1 [Example 108A-21] |
| 100 to 1000 | Cc1cc(Nc2nccc(OCC#Cc3cncnc3)n2)cc(-c2cnc(C3(O)CCC3)s2)c1 [Example 108A-22] |
| < 100 | Cc1cc(Nc2nccc(OCC3CC(=O)N(C)C3)n2)cc(-c2cnc(C3(O)CCC3)s2)c1 (stereo not drawn) [Example 108A-23] |
| < 100 | Cc1cc(Nc2nccc(OCC3(C)CCCNC3)n2)cc(-c2cnc(C3(O)CCC3)s2)c1 (stereo not drawn) [Example 108A-24] |
